Laboratory results from patent US20080138326A1, “Method for cancer treatment, carcinogenesis suppression or mitigation of adverse reactions of anticancer agents” (Kaneka Corporation, priority 2006, published 2008).
Marks after values point to notes of the source that are not given here.

What was measured:
[1] = test system: Normal human skin fibroblasts (NHDF); experiment: Promotive effect on cell activation in skin fibroblasts (intracellular ATP content); type: cell-based; conditions: 48 hours; for ATP level: HCO-60 solvent; for intracellular ATP levels compared with solvent control: 0.12 and 0.98 μg/ml
Procedure: The reduced coenzyme Q10 obtained in Production Example 1 and the oxidized coenzyme Q10 used as a raw material in Production Example 1 were respectively dissolved in undiluted HCO-60 (polyoxyethylene hydrogenated castor oil, Nihon Surfactant Kogyo K.K.) to give test samples.
Normal human skin fibroblasts (NHDF, Kurabo Industries) were cultured in a Medium 106S basal medium (Kurabo Industries) supplemented with 2% fetal bovine serum, 10 μg/ml heparin, 1 μg/ml hydrocortisone, 10 ng/ml human recombinant […], and human recombinant basic fibroblast growth factor 3 ng/ml, at 37° C. in the presence of 5% CO2. After becoming confluent, the cells were sown to a 96-well microplate at 2.0×10^3 cells per well. The medium used at the time of cell sowing was a Medium 106S (Kurabo Industries, Ltd.) supplemented with 2% fetal bovine serum, 10 μg/ml heparin, and 1 μg/ml hydrocortisone. After cultivation for 24 hours, the test samples were replaced with the same medium added with the oxidized or reduced coenzyme Q10 such that the concentrations were to be 0.12 and 0.98 μg/ml, and the cells were further cultured for 48 hours. The same amount of HCO-60 alone was added to the medium, and the resulting solution was used as a control. The medium was then removed, and the microplate was washed with PBS (GIBCO), after which intracellular ATP contents were determined using an ATP assay kit (Perkin-Elmer) and compared.
For statistical analysis, a parametric multiple comparison (Tukey type) was performed. In comparison with the solvent-only control group, * indicates a significance level of less than 5%, and ** indicates a significance level of less than 1%. In comparison with oxidized coenzyme Q10, † indicates a significance level of less than 5%.

[2] = test system: Human breast cancer-derived cells (MCF-7); experiment: Suppressive effect on cell activation in cancer-derived cells (intracellular ATP content); type: cell-based; conditions: 24 hours; for intracellular ATP content compared with control group: 80 μg/ml, Tween 80 control = 100%, P<0.0011
Procedure: The reduced coenzyme Q10 obtained in Production Example 1 and the oxidized coenzyme Q10 used as a raw material in Production Example 1 were respectively dissolved in undiluted Tween 80 (MP Biomedicals) to give test samples.
Human breast cancer-derived cells (MCF-7, supplied by ATCC) were cultured in a Dulbecco's modified MEM medium (GIBCO) supplemented with 200 U of penicillin, […] streptomycin, and 10% fetal bovine serum at 37° C. in the presence of 5% CO2. After becoming confluent, the cells were sown to a 96-well microplate (IWAKI) at 2.0×10^4 cells per well. Twenty-four hours after the sowing, the medium was replaced with a Dulbecco's modified MEM medium containing 0.5% fetal bovine serum, and the above test samples were added to said medium such that the concentrations of Tween 80 were to be […], 0.025 and 0.05% (the concentrations of the reduced coenzyme Q10 or oxidized coenzyme Q10 in the medium were 20, 40 and 80 μg/ml). Tween 80 alone was added to the Dulbecco's modified MEM medium containing 0.5% fetal bovine serum such that the concentrations were to be the same, and the resulting solution was used as a control. Twenty-four hours later, the medium was removed, and the microplate was washed with PBS (GIBCO), after which intracellular ATP contents were determined using an ATP assay kit (Perkin-Elmer) and compared. The results are shown in FIG. 2, where the determined intracellular ATP amount for the control sample is given a value of 100% and the determined intracellular ATP amounts for the test samples were compared to this value.

[3] = test system: rats; conditions: 1.2 g/kg/day for 52 consecutive weeks; cited from earlier work
[4] = test system: Normal human skin fibroblasts (NHDF); experiment: Suppressive effect on LDL-induced cell proliferation (BrdU incorporation ELISA); type: cell-based; conditions: LDL containing reduced coenzyme Q10 (2.44-78.2 μg/ml) vs LDL control sample = 100%; 48 hours
Procedure: Human LDL (BIODESIGN) and Medium 106S (Kurabo Industries, Ltd.), a basal medium for normal human skin fibroblasts, were mixed to prepare a LDL-containing medium. The reduced coenzyme Q10 obtained in Production Example 1 was dissolved into the LDL-containing medium at 50° C. with sonication. This was followed by membrane filtration, and the filtrate obtained was used as the test sample stock solution.
Likewise, the LDL-containing medium as is (without adding reduced coenzyme Q10) was subjected to membrane filtration and the filtrate obtained was used as the control sample stock solution. The LDL concentrations of the test sample stock solution and the control sample stock solution were same.
The concentration of reduced coenzyme Q10 in the test sample stock solution was measured by high performance liquid chromatography (column: length 25 cm, diameter 4.6 mm, YMC-PACK ODS-A (YMC), mobile phase: methanol-hexane (85:15, v/v), detection wavelength: 290 nm, flow rate: 1.0 mL/min). As a result, the weight percent of reduced coenzyme Q10 based on the total weight of coenzyme Q10 in the test sample stock solution was calculated to be 84.1% by weight, and the concentration of reduced coenzyme Q10 in the test sample stock solution was calculated to be 234.68 μg/ml. […]

[5] = test system: aberrant crypt foci (ACF) in the rat large intestine; experiment: Rat colorectal carcinogenesis model (azoxymethane-initiated aberrant crypt foci); type: in vivo; conditions: four weeks; for Number of ACFs, 1 crypt, percent of control group / Number of ACFs, 2 crypts, percent of control group / Number of ACFs, 3 crypts, percent of control group / Number of ACFs, 4 crypts or more, percent of control group / Total ACF number/large intestine specimen, percent of control group / Total ACs number/large intestine specimen, percent of control group: control group = 100%; for Mean ACs number/focus / Number of ACFs formed in the large intestine, 1 crypt / Number of ACFs formed in the large intestine, 2 crypts / Number of ACFs formed in the large intestine, 3 crypts / Number of ACFs formed in the large intestine, 4 crypts or more / Total ACF number/large intestine specimen / Total ACs number/large intestine specimen: mean ± standard deviation
Procedure: To examine the effect of reduced coenzyme Q10 on carcinogenesis, a test was performed using a rat colorectal carcinogenesis model. This test method represents a rodent model of two-stage carcinogenesis, targeting the rat large intestine. Because carcinogenesis research using this test method is widely conducted for screening for cancer prophylactic agents and other purposes, the test results are sufficiently reliable.
Twenty-seven male F344 rats at 6 weeks of age were divided into three groups (9 animals/group) by computer-based randomized block design in a way such that no statistically significant difference would be produced in mean body weight. For initiation treatment for colorectal carcinogenesis, each rat was given azoxymethane (AOM) by subcutaneous administration at a dose of 15 mg/kg body weight once weekly for two weeks.
Starting on the day before administration of AOM, reduced coenzyme Q10 in solution in vehicle (olive oil) at a concentration of 20 or 50 mg/ml was given by gavage at doses of 0 (control group, group 1), 20, and 50 mg/kg (groups 2 and 3) on consecutive days for four weeks. The control group (group 1) received only the vehicle for administering reduced coenzyme Q10.
Four weeks after initial administration of reduced coenzyme Q10, all rats were autopsied, and the large intestine (colon and rectum, excluding the cecum) was extirpated. The large intestine with its ends ligated was fixed with injected 10% neutrally buffered formalin solution, after which the large intestine was incised and applied over filter paper flatly. Subsequently, the large intestine was post-fixed with 10% neutrally buffered formalin solution. After fixation, the large intestine was stained with 0.2% Methylene Blue solution in physiological saline for about 10 minutes, and the mucosal surface of the large intestine was examined using a stereomicroscope, whereby aberrant crypt foci (ACF), a form of precancerous lesion in colorectal cancer, were counted.
ACF was counted and classified by number of crypts present therein. Data were obtained as total ACF number per large intestine (colon and rectum) specimen, total crypt number per large intestine specimen, and mean crypt number per ACF (Table 2).
Furthermore, total ACF number per large intestine specimen was calculated according to the number of crypts in each ACF (Table 3).
For statistical analysis, Bartlett's homogeneity test was performed to compare group 1 and groups 2 and 3. […] In the case of non-homogenous dispersion, Dunnett's multiple comparison test based on a non-parametric approach (joint ranking method) was performed.

With COC1=C(OC)C(=O)C(C/C=C(\C)CC/C=C(\C)CC/C=C(\C)CC/C=C(\C)CC/C=C(\C)CC/C=C(\C)CC/C=C(\C)CC/C=C(\C)CC/C=C(\C)CCC=C(C)C)=C(C)C1=O [Oxidized coenzyme Q10, oxidized coenzyme Q10, reference compound] the ATP level ([1]; 0.12 μg/ml) was 183.23 ± 62.70* nM, the ATP level ([1]; 0.98 μg/ml) was 224.84 ± 43.55* nM and the “intracellular ATP levels compared with solvent control” value [1] was “significantly elevated”. The “intracellular ATP content compared with control group” value [2] was “decreased significantly” and the toxic signs [3] was “no toxic signs were observed”.

In the case of COc1c(O)c(C)c(C/C=C(\C)CC/C=C(\C)CC/C=C(\C)CC/C=C(\C)CC/C=C(\C)CC/C=C(\C)CC/C=C(\C)CC/C=C(\C)CC/C=C(\C)CCC=C(C)C)c(O)c1OC [Reduced coenzyme Q10, reduced coenzyme Q10], the ATP level ([1]; 0.12 μg/ml) is reported as 277.21 ± 46.02**† nM, the ATP level ([1]; 0.98 μg/ml) is reported as 267.24 ± 20.72** nM and the “intracellular ATP levels compared with solvent control” value [1] is reported as “significantly elevated”. For the same compound, the “intracellular ATP levels, reduced compared with oxidized coenzyme Q10” value [1] was “significantly elevated”, the “intracellular ATP content, reduced compared with oxidized coenzyme Q10” value ([2]; 80 μg/ml each, P<0.05) was “significantly lower” and the “intracellular ATP content compared with control group” value [2] was “decreased significantly”. The “elevation of cell division activity (BrdU incorporated in the nucleus) induced by LDL” value [4] was “suppressed”, the “Number of ACFs, 1 crypt, percent of control group” value ([5]; 20 mg/kg by gavage) was “(71)** %” and the “Number of ACFs, 2 crypts, percent of control group” value ([5]; 20 mg/kg by gavage) was “(79) %”. For the same compound, the “Number of ACFs, 3 crypts, percent of control group” value ([5]; 20 mg/kg by gavage) was “(100) %”, the “Number of ACFs, 4 crypts or more, percent of control group” value ([5]; 20 mg/kg by gavage) was “(97) %” and the “Total ACF number/large intestine specimen, percent of control group” value ([5]; 20 mg/kg by gavage) was “(80) %”. The “Total ACs number/large intestine specimen, percent of control group” value ([5]; 20 mg/kg by gavage) was “(84) %”, the “Mean ACs number/focus” value ([5]; 20 mg/kg by gavage) was 1.77 ± 0.16 and the “Number of ACFs formed in the large intestine, 1 crypt” value ([5]; 20 mg/kg by gavage) was 47 ± 12. For the same compound, the “Number of ACFs formed in the large intestine, 2 crypts” value ([5]; 20 mg/kg by gavage) was 39 ± 9, the “Number of ACFs formed in the large intestine, 3 crypts” value ([5]; 20 mg/kg by gavage) was 18 ± 12 and the “Number of ACFs formed in the large intestine, 4 crypts or more” value ([5]; 20 mg/kg by gavage) was 7 ± 6. For the same compound, the “Total ACF number/large intestine specimen” value ([5]; 20 mg/kg by gavage) was 113 ± 32, the “Total ACs number/large intestine specimen” value ([5]; 20 mg/kg by gavage) was 214 ± 81 and the “Number of ACFs, 1 crypt, percent of control group” value ([5]; 50 mg/kg by gavage) was “(61)*** %”. For the same compound, the “Number of ACFs, 2 crypts, percent of control group” value ([5]; 50 mg/kg by gavage) was “(70)** %”, the “Number of ACFs, 3 crypts, percent of control group” value ([5]; 50 mg/kg by gavage) was “(80) %” and the “Number of ACFs, 4 crypts or more, percent of control group” value ([5]; 50 mg/kg by gavage) was “(78) %”. For the same compound, the “Total ACF number/large intestine specimen, percent of control group” value ([5]; 50 mg/kg by gavage) was “(74)* %”, the “Total ACs number/large intestine specimen, percent of control group” value ([5]; 50 mg/kg by gavage) was “(71)* %” and the “Mean ACs number/focus” value ([5]; 50 mg/kg by gavage) was 1.76 ± 0.33. For the same compound, the “Number of ACFs formed in the large intestine, 1 crypt” value ([5]; 50 mg/kg by gavage) was 40 ± 10, the “Number of ACFs formed in the large intestine, 2 crypts” value ([5]; 50 mg/kg by gavage) was 35 ± 11 and the “Number of ACFs formed in the large intestine, 3 crypts” value ([5]; 50 mg/kg by gavage) was 15 ± 7. For the same compound, the “Number of ACFs formed in the large intestine, 4 crypts or more” value ([5]; 50 mg/kg by gavage) was 6 ± 4, the “Total ACF number/large intestine specimen” value ([5]; 50 mg/kg by gavage) was 104 ± 26 and the “Total ACs number/large intestine specimen” value ([5]; 50 mg/kg by gavage) was 181 ± 54. The “gross condition, mortality, food consumption, and body weight during the treatment period” value ([5]; 20 and 50 mg/kg by gavage, male F344 rats) was “no changes associated with administration of the test substance were observed”, the “total ACF number and total crypt number per large intestine specimen compared with the control group” value ([5]; 20 and 50 mg/kg by gavage, statistically significant in the 50 mg/kg group) was “decreased” and the “total ACF number for 1-crypt ACF or 2-crypt ACF” value ([5]; 20 and 50 mg/kg by gavage, vs control group) was “decreased significantly”.
